Measured values taken from patent US20240092745A1, “DRUGS AND COMPOSITIONS FOR THE TREATMENT OF OCULAR DISORDERS” (Graybug Vision, Inc., priority 2017, published 2024).
≈ marks a conversion by molar mass, not a printed value. Entries after “also recorded” stand apart in the source; their conditions may differ. Structures can show the parent of a compound that is named as a salt. Where two headings read alike, the source gives them in different places.

Experiments:
[1] = In vitro stability of prodrugs (degradation to parent, RP-HPLC); assay type: physicochemical; conditions: for degradation kinetics / hydrolysis to parent, in words: PBS (pH 7) with 10% DMSO, RP-HPLC
Description: Prodrugs of interest were dissolved in PBS (pH 7) containing 10% DMSO (v/v) at a concentration of 0.1 mg/mL. The samples were incubated at 37° C. or 50° C. to simulate physiological and accelerated degradation conditions, respectively. At various time points, 500 μL of the solution was collected, filtered through a 0.2 μm nylon syringe filter and analyzed by RP-HPLC.
Timolol-Dorzolamide bi-functional prodrugs were dissolved in a mixture of DMSO and PBS and incubated at 37° C. The solution was aliquoted and analyzed by HPLC at pre-determined time points. Timolol-Dorzolamide bi-functional prodrugs were stable for about 3 hours as evidenced by the significant reduction of prodrug peaks in HPLC after 2-3 hours (FIG. 30A and FIG. 30B). Timolol parent drug was detected as the bi-functional prodrug degraded, whereas Dorzolamide appeared in the form of prodrugs, i.e., Dorzolamide linked with 1-3 PLA units.

[2] = Determination of drug solubility in aqueous and organic solvent; assay type: physicochemical; conditions: for solubility: thermodynamic from solid;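 on all read-outs here: solid drug suspended at 50 mg/mL nominal in each solvent, vortexed and sonicated, then dissolved concentration in filtered supernatant quantified by HPLC against a calibration curve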
Description: For each test, approximately 5-10 mg was transferred to a 10 mL glass vial. Aqueous or organic solvent was added to each vial to achieve an overall concentration of 50 mg/mL. After vortexing aggressively for 2-3 minutes and sonicating in a bath sonicator for 5 minutes, undissolved drug was spun down at 1200 rpm for 5 minutes to generate a pellet. The supernatant was collected and filtered through a 0.2 μm nylon syringe filter into HPLC vials for drug content analysis. Drug concentration was determined by comparing against a standard calibration curve.

[3] = organic solvent or mixture, Table 3B, DMSO, read-out: Solubility DMSO
[4] = Table 3B, water, drug added to 50 mg/mL, read-out: Solubility Water
[5] = organic solvent or mixture, Table 3A, DMSO, read-out: Solubility DMSO
[6] = Table 3A, water, drug added to 50 mg/mL, read-out: Solubility Water
[7] = organic solvent or mixture, Table 3A, DCM, read-out: Solubility DCM

Structure (SMILES) | solubility [2, 3] | solubility [2, 4] | solubility [2, 5] | solubility [2, 6] | other results
CC/C=C\C/C=C\C/C=C\C/C=C\C/C=C\C/C=C\CCC(=O)O[C@@H](C)C(=O)O[C@@H](C)C(=O)O[C@H](COc1nsnc1N1CCOCC1)CN(C(C)=O)C(C)(C)C [Compound 102-1, N-acyl-Timolol-PLA (n=2)-DHA] | – | – | – | – | degradation kinetics / hydrolysis to parent, in words ([1]; 37° C.): steady generation of intermediate degradants and slow hydrolysis to the parent compound; also recorded: steady generation of the intermediate N-acyl-Timolol-PLA (n=1)-DHA and slow hydrolysis to parent Timolol
CCOC(=O)CCC(=O)O[C@H](COc1nsnc1N1CCOCC1)CN(C(=O)[C@H](C)OC(=O)[C@H](C)OC(C)=O)C(C)(C)C [Compound 117-6, Timolol-bis-N-acetyl-PLA(n=2)-O-ethyl-succinate] | > 50 mg/mL | < 1 mg/mL | – | – | polymer hydrolyzed to release free Timolol ([1]; by day 13, 37° C.): approximately 50%
CCCCC/C=C\C/C=C\CCCCCCCC(=O)O[C@@H](CNC(C)(C)C)COc1nsnc1N1CCOCC1.O=C(O)/C=C\C(=O)O [Compound 70-1, Timolol-O-linoleic acid maleate] | > 50 mg/mL | < 0.01 mg/mL | – | – | degradation kinetics / hydrolysis to parent, in words ([1]; 37° C.): degraded steadily over the 4-day period, releasing parent Timolol in a linear rate; also recorded: steady generation of the parent Timolol
CCCCCCCCCCCCCCCCCC(=O)O[C@@H](C)C(=O)O[C@H](COc1nsnc1N1CCOCC1)CN(C(C)=O)C(C)(C)C [Compound 65-1] | > 100 mg/mL | < 1 mg/mL | – | – | degradation kinetics / hydrolysis to parent, in words ([1]; 37° C.): resistant to hydrolysis and failed to release the parent over the course of the study; also recorded: resistant to hydrolysis
CC(=O)O[C@@H](C)C(=O)O[C@@H](C)C(=O)O[C@H](COc1nsnc1N1CCOCC1)CN(C(=O)[C@H](C)OC(=O)[C@H](C)OC(C)=O)C(C)(C)C [Compound 118-1, Timolol-bis-N-acetyl-PLA(n=2)] | > 50 mg/mL | < 0.1 mg/mL | – | – | degradation kinetics / hydrolysis to parent, in words ([1]; 37° C.): degraded slightly faster than a Timolol-bis-N-acetyl PLA(n=4) (119-6)
CCOC(=O)CCC(=O)O[C@H](COc1nsnc1N1CCOCC1)CN(C(=O)[C@H](C)OC(=O)[C@H](C)OC(=O)[C@H](C)OC(=O)[C@H](C)OC(C)=O)C(C)(C)C [Compound 120-1, Timolol-bis-N-acetyl-PLA(n=4)-O-ethyl succinate] | > 50 mg/mL | < 1 mg/mL | – | – | degradation kinetics / hydrolysis to parent, in words ([1]; 37° C.): degraded to free Timolol incompletely by day 13
CC(=O)O[C@@H](C)C(=O)O[C@@H](C)C(=O)O[C@@H](C)C(=O)N1CCN=C1Nc1ccc2nccnc2c1Br [Compound 26-2, (S)-2-((S)-2-Acetoxy-propionyloxy)-propionic acid (S)-2-[2-(5-bromo-quinoxalin-6-ylamino)-4,5-dihydro-imidazol-1-yl]-1-methyl-2-oxo-ethyl ester] | – | – | > 50 mg/mL | < 1 mg/mL | –
CC(=O)O[C@@H](C)C(=O)O[C@@H](C)C(=O)N1CCN(C(C)=O)C1=Nc1ccc2nccnc2c1Br [Compound 114-4, Brimonidine-acetyl PLA(n=2)-N-Acetate] | – | – | 100 mg/mL (≈ 192 mM) | 1 mg/mL (≈ 1.92 mM) | –
CC(=O)N(C[C@@H](COc1nsnc1N1CCOCC1)OC(=O)[C@H](C)OC(=O)[C@H](C)O)C(C)(C)C [Compound 69-1] | > 100 mg/mL | < 6.3 mg/mL | – | – | –
COc1cccc(CN(CCOC(=O)[C@H](C)OC(=O)[C@H](C)OC(=O)[C@H](C)OC(=O)[C@H](C)OC(C)=O)C(=O)Nc2ccc(-c3cnn(C(=O)[C@H](C)OC(=O)[C@H](C)OC(=O)[C@H](C)OC(=O)[C@H](C)OC(C)=O)c3)cc2)c1 [Compound 113-1, SR5834-bis-acetyl PLA(n=4)] | 50 mg/mL (≈ 48.7 mM) | < 1 mg/mL | – | – | –
CC(=O)O[C@@H](C)C(=O)O[C@@H](C)C(=O)O[C@@H](C)C(=O)O[C@@H](C)C(=O)N1CCN=C1Nc1ccc2nccnc2c1Br [Compound 27-2, (S)-2-[(S)-2-((S)-2-Acetoxy-propionyloxy)-propionyloxy]-propionic acid (S)-2-[2-(5-bromo-quinoxalin-6-ylamino)-4,5-dihydro-imidazol-1-yl]-1-methyl-2-oxo-ethyl ester] | – | – | > 50 mg/mL | < 1 mg/mL | –
CC(C)(C)NC[C@@H](COc1nsnc1N1CCOCC1)OC(=O)CCC(=O)O[C@@H](CNC(C)(C)C)COc1nsnc1N1CCOCC1.O=C(O)/C=C\C(=O)O [Compound 76-4, Timolol-succinic acid-Timolol-maleate] | > 100 mg/mL | > 6.25 mg/mL | – | – | –
CC(=O)O[C@@H](C)C(=O)O[C@@H](C)C(=O)N1CCN(C(=O)[C@H](C)OC(=O)[C@H](C)OC(C)=O)C1=Nc1ccc2nccnc2c1Br [Compound 111-4, Brimonidine-bis-acetyl PLA(n=2)] | – | – | > 50 mg/mL | < 1 mg/mL | –
CC(C)OC(=O)CCC/C=C\C[C@@H]1[C@@H](CC[C@@H](O)CCc2ccccc2)[C@H](O)C[C@@H]1O [Latanoprost, reference compound] | – | – | > 50 mg/mL | < 1 mg/mL | solubility [2, 7]: > 50 mg/mL
CCCCCCCCCCCCCCCCCC(=O)O[C@@H](C)C(=O)O[C@@H](C)C(=O)O[C@@H](C)C(=O)O[C@@H](C)C(=O)O[C@H](COc1nsnc1N1CCOCC1)CN(C(C)=O)C(C)(C)C [Compound 67-1, N-Acyl-Timolol-PLA (n = 4) Stearate] | 70 mg/mL (≈ 76.7 mM) | < 1 mg/mL | – | – | –
CC(=O)O[C@H](C)C(=O)O[C@@H](CNC(C)(C)C)COc1nsnc1N1CCOCC1.O=C(O)/C=C\C(=O)O [Compound 44-2, Timolol-acetyl PLA (n=1) maleate] | – | – | > 50 mg/mL | < 1 mg/mL | –
CC(C)(C)NC[C@@H](COc1nsnc1N1CCOCC1)OC(=O)CCCC(=O)O[C@@H](CNC(C)(C)C)COc1nsnc1N1CCOCC1.O=C(O)/C=C\C(=O)O [Compound 77-1, Timolol-glutaric acid-Timolol-maleate] | > 100 mg/mL | < 1 mg/mL | – | – | –
CC(=O)O[C@@H](C)C(=O)O[C@@H](C)C(=O)O[C@@H](C)C(=O)O[C@@H](C)C(=O)N1CCN(C(=O)[C@H](C)OC(=O)[C@H](C)OC(=O)[C@H](C)OC(=O)[C@H](C)OC(C)=O)C1=Nc1ccc2nccnc2c1Br [Compound 116-1, Brimonidine-bis-acetyl PLA(n=4)] | – | – | 100 mg/mL (≈ 105 mM) | – | –
CCCCCCCCCCCCCCCCCC(=O)O[C@@H](C)C(=O)O[C@@H](C)C(=O)O[C@@H](C)C(=O)O[C@@H](C)C(=O)N1CCN=C1Nc1ccc2nccnc2c1Br [Compound 29-2, Octadecanoic acid (S)-1-[(S)-1-((S)-1-{(S)-2-[2-(5-bromo-quinoxalin-6-ylamino)-4,5-dihydro-imidazol-1-yl]-1-methyl-2-oxo-ethoxycarbonyl}-ethoxycarbonyl)-ethoxycarbonyl]-ethyl ester] | – | – | > 50 mg/mL | < 1 mg/mL | –
CCCCCCCCCCCCCCCCCC(=O)O[C@@H](C)C(=O)O[C@@H](C)C(=O)O[C@H](COc1nsnc1N1CCOCC1)CN(C(C)=O)C(C)(C)C [Compound 66-1, N-Acyl-Timolol-PLA (n = 2) Stearate] | > 100 mg/mL | < 1 mg/mL | – | – | –
CC(C)(C)NC[C@@H](COc1nsnc1N1CCOCC1)OC(=O)OC(C)(C)C [Compound 36-2, Carbonic acid tert-butyl ester (S)-1-(tert-butylamino-methyl)-2-(4-morpholin-4-yl-[1,2,5]thiadiazol-3-yloxy)-ethyl ester] | – | – | > 50 mg/mL | < 1 mg/mL | –
CCN[C@H]1C[C@H](C)S(=O)(=O)c2sc(S(=O)(=O)NC(=O)[C@H](C)OC(=O)[C@H](C)OC(=O)[C@H](C)OC(=O)CCCC(=O)O[C@@H](CNC(C)(C)C)COc3nsnc3N3CCOCC3)cc21 [Compound 64-4, Timolol-O-glutarate-PLA(n=3)-Dorzolamide maleate salt] | – | – | – | – | time in which prodrug cleaves to afford the active moieties ([1]; 37° C.): less than 5 hours
CCN[C@H]1C[C@H](C)S(=O)(=O)c2sc(S(N)(=O)=O)cc21 [Dorzolamide, reference compound] | – | – | < 1 mg/mL | > 50 mg/mL | Solubility DCM ([2]; Table 3B, DCM): <1.0 mg/mL; Solubility DMSO ([2]; Table 3B, DMSO): <1.0 mg/mL; Solubility Water ([2]; Table 3B, water, drug added to 50 mg/mL): >50 mg/mL; solubility [2, 7]: < 1 mg/mL
